Measurements as given in patent publication US9233964B2, “Sulfamide piperazine derivatives as protein tyrosine kinase inhibitors and pharmaceutical use therof” (LEO PHARMA A/S, priority 2011, dated 2016).

Tests used:
Type in all cases: biochemical
JAK1 = target: T1, JAK1 (Homo sapiens, UniProt P23458); assay: JAK kinase assay (HTRF, phosphorylation of synthetic peptide), JAK1; conditions: catalytic domain, ATP at Km (7 μM); read-out: JAK1 kinase inhibitory activity (EC50)
T1 construct: JAK1 (aa 850-1154) and TYK2 (aa 871-1187) are expressed with an N-terminally fused GST-tag; GST (N); purchased Carna Biosciences, Inc; host or cells: baculovirus expression system
T1 sequence (P23458 850-1154): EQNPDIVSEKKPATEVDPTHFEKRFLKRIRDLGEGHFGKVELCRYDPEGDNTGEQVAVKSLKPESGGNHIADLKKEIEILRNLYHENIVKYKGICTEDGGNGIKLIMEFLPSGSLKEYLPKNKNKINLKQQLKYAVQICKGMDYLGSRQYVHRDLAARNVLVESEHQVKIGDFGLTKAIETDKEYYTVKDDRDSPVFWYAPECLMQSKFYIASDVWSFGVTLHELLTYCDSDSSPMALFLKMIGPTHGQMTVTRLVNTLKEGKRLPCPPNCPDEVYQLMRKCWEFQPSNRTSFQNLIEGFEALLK
Procedure, shortened: (§1)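 Catalytic-domain human JAK1 (GST-tagged, aa 850-1154) or His-tagged JAK2, baculovirus-expressed, phosphorylated 1 µM biotinylated TK peptide at Km ATP (JAK1 7 µM, 10 mM MgCl2, 50 nM SEB; JAK2 4 µM, 5 mM MgCl2) in pH 7.0 Hepes, 20-30 min RT. EDTA stop; overnight streptavidin-XL665/cryptate HTRF read.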

JAK2 = target: T2, JAK2 (Homo sapiens, UniProt O60674); assay: JAK kinase assay (HTRF, phosphorylation of synthetic peptide), JAK2; conditions: catalytic domain, ATP at Km (4 μM); read-out: JAK2 kinase inhibitory activity (EC50)
T2 construct: All four purified enzymes contain only the catalytic domain; His (N); purchased Carna Biosciences, Inc; host or cells: baculovirus expression system
T2 sequence (O60674 849-1124 limits assumed): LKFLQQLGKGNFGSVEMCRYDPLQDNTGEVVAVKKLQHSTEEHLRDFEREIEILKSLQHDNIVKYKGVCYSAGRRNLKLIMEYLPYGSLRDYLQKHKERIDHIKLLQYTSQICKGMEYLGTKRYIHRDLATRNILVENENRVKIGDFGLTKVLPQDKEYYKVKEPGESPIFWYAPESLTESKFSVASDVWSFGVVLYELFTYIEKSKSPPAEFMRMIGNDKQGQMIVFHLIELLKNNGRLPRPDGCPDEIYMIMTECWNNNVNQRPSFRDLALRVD
Procedure, shortened: as §1

JAK3 = target: T3, JAK3 (Homo sapiens, UniProt P52333); assay: JAK kinase assay (HTRF, phosphorylation of synthetic peptide), JAK3; conditions: catalytic domain, ATP at Km (2 μM); read-out: JAK3 kinase inhibitory activity (EC50)
T3 construct: All four purified enzymes contain only the catalytic domain; His (N); purchased Carna Biosciences, Inc; host or cells: baculovirus expression system
T3 sequence (P52333 822-1111 limits assumed): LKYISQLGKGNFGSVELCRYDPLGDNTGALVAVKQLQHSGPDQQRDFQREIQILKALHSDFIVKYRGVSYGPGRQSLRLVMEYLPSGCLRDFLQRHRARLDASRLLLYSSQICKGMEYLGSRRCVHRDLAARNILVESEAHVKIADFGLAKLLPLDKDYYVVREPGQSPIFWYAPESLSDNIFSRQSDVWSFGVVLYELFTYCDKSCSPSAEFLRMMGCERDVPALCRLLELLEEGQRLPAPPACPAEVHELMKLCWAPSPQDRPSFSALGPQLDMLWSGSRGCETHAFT

TYK2 = target: T4, TYK2 (Homo sapiens, UniProt P29597); assay: JAK kinase assay (HTRF, phosphorylation of synthetic peptide), TYK2; conditions: catalytic domain, ATP at Km (13 μM); read-out: TYK2 kinase inhibitory activity (EC50)
T4 construct: JAK1 (aa 850-1154) and TYK2 (aa 871-1187) are expressed with an N-terminally fused GST-tag; GST (N); purchased Carna Biosciences, Inc; host or cells: baculovirus expression system
T4 sequence (P29597 871-1187): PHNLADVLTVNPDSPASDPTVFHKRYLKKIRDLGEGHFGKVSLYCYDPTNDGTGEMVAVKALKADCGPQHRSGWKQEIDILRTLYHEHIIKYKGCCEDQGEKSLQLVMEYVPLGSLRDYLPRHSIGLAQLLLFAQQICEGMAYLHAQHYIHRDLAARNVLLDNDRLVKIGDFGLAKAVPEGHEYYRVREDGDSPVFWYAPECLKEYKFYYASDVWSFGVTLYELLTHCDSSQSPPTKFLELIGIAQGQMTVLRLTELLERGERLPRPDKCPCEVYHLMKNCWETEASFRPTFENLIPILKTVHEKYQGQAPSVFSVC
Procedure, shortened: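 1 µM biotinylated TK peptide at Km ATP in pH 7.0 Hepes, 20-30 min RT. EDTA stop; overnight streptavidin-XL665/cryptate HTRF read.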

Structure (SMILES) | EC50 (JAK1) [µM] | EC50 (JAK2) [µM] | EC50 (JAK3) [µM] | EC50 (TYK2) [µM]
O=S(=O)(N(CCc1ccccc1)CCc1ccc(F)cc1)N1CCN(c2ncnc3[nH]ccc23)CC12CC2 [Example 47, 7-(7H-Pyrrolo[2,3-d]pyrimidin-4-yl)-4,7-diaza-spiro[2.5]octane-4-sulfonic acid [2-(4-fluoro-phenyl)-ethyl]-phenethyl-amide] | 0.1 to 0.5 | 0.1 to 0.5 | > 0.5 | > 0.5
O=S(=O)(N(CCO)CCOc1ccccc1)N1CCN(c2ncnc3[nH]ccc23)CC12CC2 [Example 111, N-(2-hydroxyethyl)-N-(2-phenoxyethyl)-5-(7H-pyrrolo[2,3-d]pyrimidin-4-yl)-5,8-diazaspiro[2.5]octane-8-sulfonamide] | 0.1 to 0.5 | < 0.1 | 0.1 to 0.5 | > 0.5
O=S(=O)(N(CCc1ccccc1)CCc1ccccc1)N1CCN(c2ncnc3[nH]ccc23)CC12CC2 [Example 18, 7-(7H-Pyrrolo[2,3-d]pyrimidin-4-yl)-4,7-diaza-spiro[2.5]octane-4-sulfonic acid diphenethylamide] | 0.1 to 0.5 | 0.1 to 0.5 | > 0.5 | > 0.5
CN(C1CN(C(=O)CO)C1)S(=O)(=O)N1CCN(c2ncnc3[nH]ccc23)CC12CC2 [Example 178, N-[1-(2-hydroxyacetyl)azetidin-3-yl]-N-methyl-5-(7H-pyrrolo[2,3-d]pyrimidin-4-yl)-5,8-diazaspiro[2.5]octane-8-sulfonamide] | < 0.1 | < 0.1 | < 0.1 | 0.1 to 0.5
CCCS(=O)(=O)N1CCC(CN(C)S(=O)(=O)N2CCN(c3ncnc4[nH]ccc34)CC23CC3)C1 (stereo not drawn) [Example 118, N-methyl-N-[(1-propylsulfonylpyrrolidin-3-yl)methyl]-5-(7H-pyrrolo[2,3-d]pyrimidin-4-yl)-5,8-diazaspiro[2.5]octane-8-sulfonamide] | < 0.1 | < 0.1 | < 0.1 | 0.1 to 0.5

More lines, now with the values ahead:

EC50 (JAK1) [µM] | EC50 (JAK2) [µM] | EC50 (JAK3) [µM] | EC50 (TYK2) [µM] | Structure (SMILES)
< 0.1 | < 0.1 | 0.1 to 0.5 | 0.1 to 0.5 | CN(C(=O)CC1CCCC1)S(=O)(=O)N1CCN(c2ncnc3[nH]ccc23)CC12CC2 [Example 133, 2-cyclopentyl-N-methyl-N-[[5-(7H-pyrrolo[2,3-d]pyrimidin-4-yl)-5,8-diazaspiro[2.5]octan-8-yl]sulfonyl]acetamide]
< 0.1 | < 0.1 | 0.1 to 0.5 | 0.1 to 0.5 | CN(CC1CCN(C(=O)CCO)CC1)S(=O)(=O)N1CCN(c2ncnc3[nH]ccc23)CC12CC2 [Example 151, N-[[1-(3-hydroxypropanoyl)-4-piperidyl]methyl]-N-methyl-5-(7H-pyrrolo[2,3-d]pyrimidin-4-yl)-5,8-diazaspiro[2.5]octane-8-sulfonamide]
< 0.1 | < 0.1 | < 0.1 | 0.1 to 0.5 | O=S(=O)(N(CCOc1ccccc1)C1COC1)N1CCN(c2ncnc3[nH]ccc23)CC12CC2 [Example 115, N-(oxetan-3-yl)-N-(2-phenoxyethyl)-5-(7H-pyrrolo[2,3-d]pyrimidin-4-yl)-5,8-diazaspiro[2.5]octane-8-sulfonamide]
< 0.1 | < 0.1 | < 0.1 | < 0.1 | CN(CC1CCC1)S(=O)(=O)N1CCN(c2ncnc3[nH]ccc23)CC12CC2 [Example 60, N-(cyclobutylmethyl)-N-methyl-5-(7H-pyrrolo[2,3-d]pyrimidin-4-yl)-5,8-diazaspiro[2.5]octane-8-sulfonamide]
< 0.1 | < 0.1 | 0.1 to 0.5 | 0.1 to 0.5 | O=S(=O)(NC[C@@H]1CCCN1Cc1ccccc1)N1CCN(c2ncnc3[nH]ccc23)CC12CC2 [Example 175, N-[[(2S)-1-benzylpyrrolidin-2-yl]methyl]-5-(7H-pyrrolo[2,3-d]pyrimidin-4-yl)-5,8-diazaspiro[2.5]octane-8-sulfonamide]
< 0.1 | < 0.1 | < 0.1 | < 0.1 | O=S(=O)(N(CCO)C1CCC1)N1CCN(c2ncnc3[nH]ccc23)CC12CC2 [Example 101, N-cyclobutyl-N-(2-hydroxyethyl)-5-(7H-pyrrolo[2,3-d]pyrimidin-4-yl)-5,8-diazaspiro[2.5]octane-8-sulfonamide]
< 0.1 | < 0.1 | < 0.1 | 0.1 to 0.5 | Cc1cc(CN(C)S(=O)(=O)N2CCN(c3ncnc4[nH]ccc34)CC23CC3)on1 [Example 67, N-methyl-N-[(3-methylisoxazol-5-yl)methyl]-5-(7H-pyrrolo[2,3-d]pyrimidin-4-yl)-5,8-diazaspiro[2.5]octane-8-sulfonamide]
